From ChEMBL document CHEMBL1201862, “PubChem BioAssay data set” (2004)
Values belong to the compound of their own block, whether it stands above or below them. Activity calls are given as the source filed them.

Tests used:
[1] = molecular target: Eukaryotic translation initiation factor 4E (Mus musculus, UniProt P63073); assay: blockers of eIF4G binding by eIF4E – biochemical, TR-FRET, dose response (AID 855); assay type: functional;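 note: potency for disrupting eIF4E binding to eIF4GI seen as loss of FRET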
Eukaryotic translation initiation factor 4E, sequence (P63073 whole entry): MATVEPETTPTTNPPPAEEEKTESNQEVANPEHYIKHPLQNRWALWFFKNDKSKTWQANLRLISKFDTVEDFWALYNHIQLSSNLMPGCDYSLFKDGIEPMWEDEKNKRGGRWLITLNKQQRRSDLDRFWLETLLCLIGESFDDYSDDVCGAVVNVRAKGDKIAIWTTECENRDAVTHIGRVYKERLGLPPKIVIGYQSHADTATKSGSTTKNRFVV

Cytochrome P450 3A4 = Cytochrome P450 3A4 (Homo sapiens, UniProt P08684); settings: Potency;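 note: confirmatory qHTS run detecting inhibitors and substrates of CYP3A4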
Cytochrome P450 3A4, sequence (P08684 whole entry): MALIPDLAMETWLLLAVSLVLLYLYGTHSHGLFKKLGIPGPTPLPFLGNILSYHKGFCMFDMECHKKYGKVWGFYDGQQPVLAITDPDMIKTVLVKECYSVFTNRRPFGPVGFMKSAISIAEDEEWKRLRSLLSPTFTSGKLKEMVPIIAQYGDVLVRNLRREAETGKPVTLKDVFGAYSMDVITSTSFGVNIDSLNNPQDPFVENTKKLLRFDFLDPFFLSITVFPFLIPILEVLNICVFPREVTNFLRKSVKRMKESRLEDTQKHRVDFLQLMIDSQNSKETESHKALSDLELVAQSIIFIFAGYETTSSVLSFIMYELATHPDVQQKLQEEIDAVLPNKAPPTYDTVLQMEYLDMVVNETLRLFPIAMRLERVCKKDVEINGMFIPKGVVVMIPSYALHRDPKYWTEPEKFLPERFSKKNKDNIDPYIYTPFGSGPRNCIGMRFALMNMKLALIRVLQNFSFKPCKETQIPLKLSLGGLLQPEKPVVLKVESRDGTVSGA

Fatty acid synthase [2] = molecular target: T1, Fatty acid synthase (Homo sapiens, UniProt P49327); assay: inhibition of human FAS-TE enzyme activity – biochemical, kinetic fluorescence intensity, dose response (AID 624326); assay type: functional;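 note: rate of fluorescence rise from hydrolysis of a fluorogenic O-methyl fluorescein ester substrate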
T1 sequence (P49327 whole entry): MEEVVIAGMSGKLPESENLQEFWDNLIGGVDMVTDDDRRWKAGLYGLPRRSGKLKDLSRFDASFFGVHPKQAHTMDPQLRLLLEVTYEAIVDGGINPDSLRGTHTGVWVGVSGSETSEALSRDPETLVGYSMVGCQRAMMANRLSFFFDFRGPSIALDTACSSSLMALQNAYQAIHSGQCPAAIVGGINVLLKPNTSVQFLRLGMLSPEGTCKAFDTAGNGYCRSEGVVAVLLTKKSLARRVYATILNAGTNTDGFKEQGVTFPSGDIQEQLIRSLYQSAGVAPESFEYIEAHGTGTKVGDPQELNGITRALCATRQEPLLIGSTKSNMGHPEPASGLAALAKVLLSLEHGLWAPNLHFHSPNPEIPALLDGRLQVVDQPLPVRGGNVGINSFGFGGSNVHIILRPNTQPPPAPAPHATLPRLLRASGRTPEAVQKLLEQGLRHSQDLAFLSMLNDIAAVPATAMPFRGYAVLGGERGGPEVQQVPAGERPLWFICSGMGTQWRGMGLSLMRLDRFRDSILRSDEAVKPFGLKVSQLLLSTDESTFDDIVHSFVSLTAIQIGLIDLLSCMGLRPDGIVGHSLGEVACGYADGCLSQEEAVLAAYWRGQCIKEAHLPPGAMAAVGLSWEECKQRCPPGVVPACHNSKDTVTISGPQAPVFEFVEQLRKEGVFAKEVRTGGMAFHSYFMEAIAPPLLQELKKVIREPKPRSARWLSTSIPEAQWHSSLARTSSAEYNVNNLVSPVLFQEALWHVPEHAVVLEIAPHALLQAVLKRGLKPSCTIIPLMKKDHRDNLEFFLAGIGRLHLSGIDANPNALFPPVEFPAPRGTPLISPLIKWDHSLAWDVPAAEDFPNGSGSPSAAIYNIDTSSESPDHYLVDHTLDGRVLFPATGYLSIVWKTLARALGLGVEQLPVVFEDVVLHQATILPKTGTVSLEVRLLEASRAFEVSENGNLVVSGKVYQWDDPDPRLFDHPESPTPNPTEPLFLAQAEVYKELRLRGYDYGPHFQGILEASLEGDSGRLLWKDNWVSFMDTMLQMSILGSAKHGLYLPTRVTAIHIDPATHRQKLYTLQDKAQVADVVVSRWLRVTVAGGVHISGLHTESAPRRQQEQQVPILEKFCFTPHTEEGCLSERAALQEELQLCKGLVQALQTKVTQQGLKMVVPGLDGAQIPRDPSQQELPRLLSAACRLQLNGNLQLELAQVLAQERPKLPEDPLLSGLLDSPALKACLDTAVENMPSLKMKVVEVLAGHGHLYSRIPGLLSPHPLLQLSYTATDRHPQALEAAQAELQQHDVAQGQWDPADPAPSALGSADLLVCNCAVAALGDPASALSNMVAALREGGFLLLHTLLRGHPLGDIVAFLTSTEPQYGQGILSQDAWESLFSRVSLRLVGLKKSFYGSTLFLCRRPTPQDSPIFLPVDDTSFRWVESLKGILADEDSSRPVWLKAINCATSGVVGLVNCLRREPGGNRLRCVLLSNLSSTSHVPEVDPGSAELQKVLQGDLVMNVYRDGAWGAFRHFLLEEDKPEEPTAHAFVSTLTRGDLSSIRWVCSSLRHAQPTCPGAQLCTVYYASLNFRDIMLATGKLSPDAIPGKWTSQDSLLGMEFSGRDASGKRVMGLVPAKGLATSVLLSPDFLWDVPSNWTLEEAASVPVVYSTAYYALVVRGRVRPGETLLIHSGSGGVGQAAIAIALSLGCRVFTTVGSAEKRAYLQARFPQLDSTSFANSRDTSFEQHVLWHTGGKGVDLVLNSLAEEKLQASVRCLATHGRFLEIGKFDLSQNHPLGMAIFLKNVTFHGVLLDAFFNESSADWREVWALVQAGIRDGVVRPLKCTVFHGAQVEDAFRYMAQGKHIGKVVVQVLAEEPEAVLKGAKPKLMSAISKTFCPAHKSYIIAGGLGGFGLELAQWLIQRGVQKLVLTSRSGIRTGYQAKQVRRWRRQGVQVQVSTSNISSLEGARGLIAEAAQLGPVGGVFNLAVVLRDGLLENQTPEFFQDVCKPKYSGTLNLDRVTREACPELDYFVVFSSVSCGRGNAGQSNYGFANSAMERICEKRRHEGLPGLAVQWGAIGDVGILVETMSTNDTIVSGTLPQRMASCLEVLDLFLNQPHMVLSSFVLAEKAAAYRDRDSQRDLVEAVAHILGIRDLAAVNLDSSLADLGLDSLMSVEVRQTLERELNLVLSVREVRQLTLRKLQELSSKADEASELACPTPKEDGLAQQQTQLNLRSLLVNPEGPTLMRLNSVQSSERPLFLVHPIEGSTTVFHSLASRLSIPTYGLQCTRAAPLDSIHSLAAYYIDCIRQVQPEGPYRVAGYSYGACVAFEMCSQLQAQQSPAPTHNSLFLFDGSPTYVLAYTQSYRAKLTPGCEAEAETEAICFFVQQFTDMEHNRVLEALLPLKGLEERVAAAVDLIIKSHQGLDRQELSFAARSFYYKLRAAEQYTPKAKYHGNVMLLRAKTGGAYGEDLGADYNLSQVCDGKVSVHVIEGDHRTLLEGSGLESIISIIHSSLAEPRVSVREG

Fatty acid synthase [3] = molecular target: T1, Fatty acid synthase; assay: inhibition of human FAS-TE enzyme activity – biochemical, endpoint fluorescence intensity, uHTS hits, dose response (AID 624327); assay type: functional;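 note: fluorescence from hydrolysis of an O-methyl fluorescein acyl ester substrate by the enzyme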
[4] = molecular target: T2, High affinity choline transporter 1 (Homo sapiens, UniProt Q9GZV3); assay: human choline transporter blockers, potency – cell-based, 5-point CRC, membrane potential dye, dose response (AID 504840); assay type: functional
T2 sequence (Q9GZV3 whole entry): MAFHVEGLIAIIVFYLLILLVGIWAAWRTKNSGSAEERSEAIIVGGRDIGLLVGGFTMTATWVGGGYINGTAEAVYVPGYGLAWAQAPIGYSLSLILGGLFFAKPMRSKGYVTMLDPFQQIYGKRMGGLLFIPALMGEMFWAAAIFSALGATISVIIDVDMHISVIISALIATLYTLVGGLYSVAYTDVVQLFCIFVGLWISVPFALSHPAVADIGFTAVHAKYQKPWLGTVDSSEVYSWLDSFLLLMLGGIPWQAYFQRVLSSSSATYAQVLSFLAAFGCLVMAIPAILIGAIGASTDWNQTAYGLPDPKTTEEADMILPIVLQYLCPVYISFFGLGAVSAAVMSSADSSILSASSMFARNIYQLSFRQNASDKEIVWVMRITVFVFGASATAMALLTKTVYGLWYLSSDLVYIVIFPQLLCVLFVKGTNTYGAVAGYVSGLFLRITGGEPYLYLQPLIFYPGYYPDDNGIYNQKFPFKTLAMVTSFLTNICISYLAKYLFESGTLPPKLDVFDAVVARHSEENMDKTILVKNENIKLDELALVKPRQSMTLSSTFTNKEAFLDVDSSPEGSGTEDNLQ

Large T antigen = Large T antigen (Simian virus 40, UniProt P03070); assay type: functional, Betapolyomavirus macacae;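 note: Confirmatory-stage PubChem screen for compounds that inhibit SV40 T antigen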
Large T antigen, sequence (P03070 whole entry): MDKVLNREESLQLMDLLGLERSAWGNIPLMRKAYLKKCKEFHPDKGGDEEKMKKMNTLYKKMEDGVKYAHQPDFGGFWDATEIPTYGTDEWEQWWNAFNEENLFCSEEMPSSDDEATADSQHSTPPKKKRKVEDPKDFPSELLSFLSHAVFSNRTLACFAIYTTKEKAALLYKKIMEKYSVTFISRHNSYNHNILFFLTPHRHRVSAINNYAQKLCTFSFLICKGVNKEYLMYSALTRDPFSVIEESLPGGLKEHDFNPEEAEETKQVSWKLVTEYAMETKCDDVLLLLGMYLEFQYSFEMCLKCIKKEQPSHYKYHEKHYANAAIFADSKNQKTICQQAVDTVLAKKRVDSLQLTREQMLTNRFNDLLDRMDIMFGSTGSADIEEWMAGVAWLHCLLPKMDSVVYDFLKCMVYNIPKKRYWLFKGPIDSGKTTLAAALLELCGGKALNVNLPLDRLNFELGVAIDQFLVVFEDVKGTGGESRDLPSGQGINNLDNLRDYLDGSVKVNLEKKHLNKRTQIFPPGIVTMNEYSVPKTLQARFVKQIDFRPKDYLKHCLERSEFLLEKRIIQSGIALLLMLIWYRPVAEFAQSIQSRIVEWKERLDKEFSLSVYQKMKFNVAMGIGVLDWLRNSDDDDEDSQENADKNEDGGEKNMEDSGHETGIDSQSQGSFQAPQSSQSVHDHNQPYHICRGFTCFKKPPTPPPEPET

[5] = molecular target: T3, Calpain-2 catalytic subunit (Sus scrofa, UniProt P43367); assay: m-calpain protease blockers, concentration series – biochemical, fluorogenic peptide substrate, dose response (AID 1420); assay type: functional
T3 sequence (P43367 whole entry): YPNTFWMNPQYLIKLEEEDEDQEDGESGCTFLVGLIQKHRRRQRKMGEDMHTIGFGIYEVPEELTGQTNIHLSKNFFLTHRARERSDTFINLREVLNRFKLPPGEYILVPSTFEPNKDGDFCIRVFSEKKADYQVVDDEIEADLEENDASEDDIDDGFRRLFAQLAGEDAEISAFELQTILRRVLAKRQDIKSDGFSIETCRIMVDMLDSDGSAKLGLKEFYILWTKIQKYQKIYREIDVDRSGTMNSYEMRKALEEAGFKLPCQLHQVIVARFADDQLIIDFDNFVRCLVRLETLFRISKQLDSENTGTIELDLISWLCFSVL

[6] = molecular target: T4, Corticotropin-releasing factor receptor 2/Corticotropin-releasing factor-binding protein (Homo sapiens, UniProt P24387+Q13324); assay: Dose Response confirmation of uHTS hits for small molecule antagonists of the CRF-binding protein and CRF-R2 receptor complex.; assay type: functional; settings: read-out: IC50_Mean
T4 sequence (Q13324 whole entry): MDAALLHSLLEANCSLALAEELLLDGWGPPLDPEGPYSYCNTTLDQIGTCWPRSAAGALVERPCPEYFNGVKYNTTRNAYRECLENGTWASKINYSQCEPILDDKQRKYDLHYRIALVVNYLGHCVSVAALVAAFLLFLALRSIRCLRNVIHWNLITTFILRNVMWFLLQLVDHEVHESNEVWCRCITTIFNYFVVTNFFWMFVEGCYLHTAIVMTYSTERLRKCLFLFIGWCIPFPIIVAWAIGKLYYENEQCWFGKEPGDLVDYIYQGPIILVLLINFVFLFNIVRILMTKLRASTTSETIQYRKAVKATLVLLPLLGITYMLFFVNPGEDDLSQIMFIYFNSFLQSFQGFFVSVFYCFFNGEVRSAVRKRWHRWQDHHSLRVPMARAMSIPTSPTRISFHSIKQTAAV
T4 sequence (P24387 whole entry): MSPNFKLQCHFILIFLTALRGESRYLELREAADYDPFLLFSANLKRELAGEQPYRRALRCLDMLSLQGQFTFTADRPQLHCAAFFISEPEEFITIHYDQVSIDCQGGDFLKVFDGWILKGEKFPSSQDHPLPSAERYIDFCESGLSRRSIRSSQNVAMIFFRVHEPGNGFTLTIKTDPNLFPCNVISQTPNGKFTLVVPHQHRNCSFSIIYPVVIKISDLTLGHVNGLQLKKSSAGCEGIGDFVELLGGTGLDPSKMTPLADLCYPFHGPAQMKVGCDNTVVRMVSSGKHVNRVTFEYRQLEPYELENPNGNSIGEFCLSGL

[7] = molecular target: T4, Corticotropin-releasing factor receptor 2/Corticotropin-releasing factor-binding protein; assay: activators of CRF receptor 2 with binding protein – uHTS hits, confirmation (AID 602473); assay type: functional; settings: read-out: EC50_Mean
[8] = molecular target: T5, Rac GTPase-activating protein 1 (Homo sapiens, UniProt Q9H0H5); assay: blockers of MgcRacGAP-driven Rac1 GTP hydrolysis – biochemical, ADP Hunter fluorescence, primary and confirmatory, confirmation (AID 624330); assay type: functional
T5 sequence (Q9H0H5 whole entry): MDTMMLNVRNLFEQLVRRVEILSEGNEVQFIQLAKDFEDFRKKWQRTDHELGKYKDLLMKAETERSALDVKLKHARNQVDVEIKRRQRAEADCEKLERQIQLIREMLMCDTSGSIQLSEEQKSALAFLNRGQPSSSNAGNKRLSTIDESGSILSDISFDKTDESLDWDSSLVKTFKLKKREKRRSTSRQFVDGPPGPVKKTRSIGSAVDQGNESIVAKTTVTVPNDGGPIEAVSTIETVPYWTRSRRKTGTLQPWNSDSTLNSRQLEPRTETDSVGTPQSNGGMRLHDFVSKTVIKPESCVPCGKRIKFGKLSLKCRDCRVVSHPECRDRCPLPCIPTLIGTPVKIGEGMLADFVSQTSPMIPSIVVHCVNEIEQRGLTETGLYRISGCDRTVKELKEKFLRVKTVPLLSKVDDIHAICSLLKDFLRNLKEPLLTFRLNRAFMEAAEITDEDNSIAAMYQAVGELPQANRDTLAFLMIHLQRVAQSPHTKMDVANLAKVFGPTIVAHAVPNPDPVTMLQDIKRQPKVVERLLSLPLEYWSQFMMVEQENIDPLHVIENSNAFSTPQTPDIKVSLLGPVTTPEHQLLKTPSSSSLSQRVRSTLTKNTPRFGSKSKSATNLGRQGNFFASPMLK

[9] = blockers of HIV-1 envelope-mediated cell-cell fusion – cherry-pick, dose response (AID 652057); assay type: functional, cell-based
[10] = HIV-1 AD8 envelope cell-cell fusion blockers – cherry-pick, dose response (AID 652062); assay type: functional, cell-based;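 note: luciferase signal from cell-cell fusion driven by HIV-1 clade B AD8 Env; potency is for inhibitors of fusion seen as a drop in luminescence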
[11] = blockers of HIV-1 ZM109 envelope-driven cell-cell fusion – HeLa effector, CEM target cells, luciferase, cherry-pick, dose response (AID 652058); assay type: functional, cell-based;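 note: luciferase signal from HIV-1 Env mediated cell-cell fusion of effector and target cells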
[12] = P. falciparum Dd2 growth inhibitors, dose response, SYBR Green, cherry-picked samples (AID 1159567); assay type: functional, cell-based

- IC50 [1]: > 64 µM (inactive)
SMILES: Cc1cc(NC(=O)c2noc3c2CCc2ccccc2-3)n(-c2ccccc2)n1

- AC50 (Cytochrome P450 3A4): 15.8 µM (inconclusive)
SMILES: COC(=O)c1ccc(C23CC4(C2)[C@H](CN(CC2CCCCC2)[C@@H]4c2ccccc2)C3c2ccc(C(F)(F)F)cc2)cc1 (stereo partly drawn)

- IC50 (Fatty acid synthase [2]): 5.75 µM (active)
- IC50 (Fatty acid synthase [3]): 5.09 µM (active)
- IC50 [4]: 12.6 µM (active)
SMILES: CCCCCc1nc2sc3c(c2c(=O)n1NC(=O)c1ccc([N+](=O)[O-])cc1)CC(C)(C)OC3

- IC50 (Large T antigen): 7.29 µM (active)
SMILES: CN(C)c1ccc(NC(N)=S)cc1

- IC50 [5]: 0.917 µM (not active)
SMILES: Cc1nn(Cc2ccc(Cl)cc2Cl)c(C)c1NC(=O)c1nn(C)cc1Cl

- IC50 [5]: > 50 µM (not active)
SMILES: Cc1ccc([N+](=O)[O-])cc1NC(=O)C[n+]1ccccc1

- AC50 (Cytochrome P450 3A4): 20 µM (inconclusive)
SMILES: CC(=O)N1CC=CC1(CC(C)C)C(=O)NCc1ccccn1 (stereo not drawn)

- IC50 [1]: 50 µM (inactive)
SMILES: COc1ccccc1CNc1nc(-c2cc(C)n(C)c2C)cs1

- IC50 [1]: > 64 µM (inactive)
SMILES: O=C(Oc1ccc(=O)n(-c2ccccc2)n1)c1cccc(Cl)c1

- AC50 (Cytochrome P450 3A4): 15.8 µM (inconclusive)
SMILES: CCCn1c(C)nc2c(NCc3ccccc3)nc(C)nc21

- AC50 (Cytochrome P450 3A4): 25.1 µM (inconclusive)
SMILES: c1cc2c3c(c1)ccc1cccc(c13)C2

- IC50 [1]: 50 µM (inactive)
SMILES: Cc1c(C(=O)N2CCCCC2)nn(-c2ccc(Cl)cc2)c(=O)c1C#N

- IC50 [6]: 3.47 µM (active)
- EC50 [7]: > 53 µM (inactive)
- IC50 [5]: 7.13 µM (not active)
SMILES: Cc1cccc(NC(=O)c2cc(S(=O)(=O)c3ccccc3)ccc2Cl)c1

- AC50 (Cytochrome P450 3A4): 25.1 µM (inconclusive)
SMILES: CC(=O)[C@@H]1[C@H]2[C@H](C(=O)[C@H]3OC[C@@H]2O3)[C@H]2C=Cc3ccccc3N21

- IC50 (Large T antigen): 5.09 µM (active)
- IC50 [8]: 22.3 µM (active)
SMILES: O=S1(=O)N=C(Nc2ccc(O)cc2)c2ccccc21

- IC50 [5]: 22.8 µM (not active)
SMILES: Cc1nn(-c2ccc(Cl)c(Cl)c2Cl)c(=O)c2ccccc12

- AC50 (Cytochrome P450 3A4): 6.31 µM (inconclusive)
SMILES: Cn1cc(C2=C(c3cn(CCCSC(=N)N)c4ccccc34)C(=O)NC2=O)c2ccccc21

- IC50 [5]: 7.24 µM (active)
SMILES: CCOC(=O)N1CCC(Nc2ccc(N3C(=O)C4CCCCC4C3=O)cc2[N+](=O)[O-])CC1 (stereo not drawn)

- IC50 [5]: 7.15 µM (not active)
SMILES: CC(=O)NC1(c2ccccc2)CCN(C(=O)N2CCOCC2)CC1

SMILES: COC(=O)[C@@H]1C[C@@]2(O)[C@H](O)[C@H](O)[C@H](O)C[C@H]2N1Cc1cccnc1
- AC50 (Cytochrome P450 3A4): 31.6 µM (inconclusive)

SMILES: COC(=O)CCC(C)C1CCC2C3C(O)C[C@@H]4CC(O)CC[C@@]4(C)C3CC(O)[C@]12C (stereo partly drawn)
- AC50 (Cytochrome P450 3A4): 20 µM (inconclusive)

- AC50 (Cytochrome P450 3A4): 31.6 µM (inconclusive)
SMILES: COc1cc2c(cc1OC)C1Cc3ccc(OC)c(OC)c3CN1CC2 (stereo not drawn)

SMILES: CC(C)(C)OC(=O)N1CCc2onc(-c3ccc(Br)cc3)c2C1=O
- AC50 [9]: 64.9 µM (active)
- AC50 [10]: 59.9 µM (active)

SMILES: C[C@H](CO)N1C[C@H](C)[C@H](CN(C)S(=O)(=O)c2cccs2)Oc2ccc(NC(=O)Nc3cccc4ccccc34)cc2CC1=O
- AC50 [9]: < 0.26 µM (active)
- AC50 [11]: < 0.26 µM (active)
- AC50 [10]: < 0.26 µM (active)

SMILES: COc1ccc(NC(=O)N(C)C[C@H]2OCc3ccccc3-c3c(n(C)c4ccccc34)C(=O)N([C@@H](C)CO)C[C@H]2C)c(OC)c1
- AC50 [12]: 4.92 µM (active)

- IC50 (Large T antigen): 5.98 µM (active)
- IC50 [8]: 40.8 µM (active)
SMILES: CCN(CC)c1ccc(/C=N/N2CCOCC2)cc1

- IC50 (Large T antigen): 11.7 µM (active)
- IC50 [8]: 32.3 µM (active)
SMILES: COc1cc(/C=N/NC(=O)C(=O)NCC2CCCO2)ccc1O (stereo not drawn)

SMILES: COc1ccc(CN2C[C@H](C)[C@H](OC)CN(C)C(=O)c3cc(NC(=O)c4nc5ccccc5s4)ccc3OC[C@@H]2C)cc1
- AC50 [12]: 5.29 µM (active)

SMILES: C[C@H](CO)N1C[C@H](C)[C@@H](CN(C)Cc2ccc(Oc3ccccc3)cc2)Oc2ccc(NS(=O)(=O)c3cn(C)cn3)cc2CC1=O
- AC50 [12]: 9.82 µM (active)

SMILES: COc1cccc(S(=O)(=O)N2CCC3(CC2)CN[C@@H](CO)c2[nH]c4cc(OC)ccc4c23)c1
- AC50 [12]: 5.39 µM (active)

SMILES: C[C@H](CO)N1C[C@H](C)[C@H](CN(C)C(=O)C2CC2)Oc2cc(C#Cc3ccccc3)ccc2S1(=O)=O
- AC50 [12]: 4.27 µM (active)

SMILES: C[C@@H]1CN([C@H](C)CO)S(=O)(=O)c2ccc(C#Cc3ccccc3)cc2O[C@H]1CN(C)S(=O)(=O)c1cn(C)cn1
- AC50 [12]: 3.7 µM (active)

- AC50 (Cytochrome P450 3A4): 39.8 µM (inconclusive)
SMILES: COc1ccc2c(c1)OCc1c-2oc2cc(OC)ccc12 [DEHYDROVARIABILIN]
